Results as given in patent US3983105A, “Penicillins” (Bayer Aktiengesellschaft, priority 1971, dated 1976).

Tests used:
Format in all cases: cell-based
Staphylococcus aureus = assay: MIC, test tube serial dilution, Staphylococcus aureus
Proteus vulgaris = assay: MIC, test tube serial dilution, Proteus vulgaris
Pseudomonas aeruginosa = assay: MIC, test tube serial dilution, Pseudomonas aeruginosa
Streptococcus faecalis = assay: MIC, test tube serial dilution, Streptococcus faecalis
Proteus morganii = assay: MIC, test tube serial dilution, Proteus morganii
Escherichia coli = assay: MIC, test tube serial dilution, Escherichia coli
Klebsiella-Aerobacter = assay: MIC, test tube serial dilution, Klebsiella-Aerobacter
[1] = strain 1756 (BRL 1 756), 24 hours, 37°C

Structure (SMILES)	MIC (Staphylococcus aureus; [1])	MIC (Proteus vulgaris; strain 1017, 24 hours, 37°C)	MIC (Pseudomonas aeruginosa; strain Bonn, 24 hours, 37°C)	MIC (Escherichia coli; strain 183/58, 24 hours, 37°C)	MIC (Escherichia coli; strain A 261, 24 hours, 37°C)	MIC (Klebsiella-Aerobacter; strain 63, 24 hours, 37°C)	MIC (Streptococcus faecalis; unit assumed)	MIC (Staphylococcus aureus; Table 3, strain 133)	MIC (Staphylococcus aureus; Table 3, strain 1756E)	MIC (Proteus vulgaris; Table 3, strain 1017)	MIC (Pseudomonas aeruginosa; Table 3, strain F 41)	MIC (Pseudomonas aeruginosa; Table 3, strain Walter)	MIC (Streptococcus faecalis; Table 3, ATCC 9790)	MIC (Proteus morganii; Table 3, strain 932)	MIC (Escherichia coli; Table 3, strain 14)	MIC (Escherichia coli; Table 3, strain 183/58)	MIC (Escherichia coli; Table 3, strain A 261)	MIC (Escherichia coli; Table 3, strain C 165)	MIC (Klebsiella-Aerobacter; Table 3, strain 63)	MIC (Klebsiella-Aerobacter; Table 3, strain K 10)	further results
CN(C)C(=O)N1CCN(C(=O)N[C@@H](C(=O)N[C@@H]2C(=O)N3[C@@H]2SC(C)(C)[C@@H]3C(=O)O)c2ccccc2)C1=O [Example 6, Sodium D(-)-α-[(3-dimethylaminocarbonyl-imidazolidin-2-on-1-yl)-carbonylamino]-benzylpenicillin]	64 U/ml	16 U/ml	32 U/ml	4 U/ml	> 256 U/ml	32 U/ml	–	–	–	–	–	–	–	–	–	–	–	–	–	–	MIC (Pseudomonas aeruginosa; strain Walter, 24 hours, 37°C): 32 U/ml; MIC (Streptococcus faecalis; ATCC 9790, 24 hours, 37°C): 32 U/ml; MIC (Proteus morganii; strain 932, 24 hours, 37°C): 64 U/ml; MIC (Klebsiella-Aerobacter; strain K 10, 24 hours, 37°C): 16 U/ml
CC1(C)S[C@@H]2[C@H](NC(=O)[C@H](NC(=O)N3CCN(C(=O)N4CCCCC4)C3=O)c3ccccc3)C(=O)N2[C@H]1C(=O)O [Example 9, Sodium D(-)-α-[(3-piperdyl-N-carbonyl-imidazolidin-2-on-1-yl)-carbonylamino]-benzylpenicillin]	> 256 U/ml	–	64 U/ml	4 U/ml	> 256 U/ml	–	128 µg/mL	–	–	–	–	–	–	–	–	–	–	–	–	–	MIC (Proteus vulgaris; unit assumed): 32 µg/mL; MIC (Pseudomonas aeruginosa; in µg/mL (unit assumed)): 32; MIC (Proteus morganii; unit assumed): 32 µg/mL; MIC (Klebsiella-Aerobacter; in µg/mL (unit assumed)): 8
CC1(C)S[C@@H]2[C@H](NC(=O)[C@H](NC(=O)N3CCN(C=O)C3=O)c3ccccc3)C(=O)N2[C@H]1C(=O)O [Example 20, Sodium D(-)-α-[(3-formyl-imidazolidin-2-on-1-yl)-carbonylamino]-benzylpenicillin]	128 U/ml	16 U/ml	–	64 U/ml	> 256 U/ml	64 U/ml	32 µg/mL	–	–	–	–	–	–	–	–	–	–	–	–	–	MIC (Pseudomonas aeruginosa; in µg/mL (unit assumed)): 8; MIC (Pseudomonas aeruginosa; strain Walter, 24 hours, 37°C): 16 U/ml; MIC (Proteus morganii; unit assumed): 8 µg/mL; MIC (Klebsiella-Aerobacter; in µg/mL (unit assumed)): 32
CCOC(=O)NS(=O)(=O)N1CCN(C(=O)N[C@@H](C(=O)N[C@@H]2C(=O)N3[C@@H]2SC(C)(C)[C@@H]3C(=O)O)c2ccccc2)C1=O [Example 22, Sodium D(-)-α-{[3-(ethoxy-carbonyl-amino-sulphonyl)imidazolidin-2-on-1-yl]-carbonylamino}-benzylpenicillin]	128 U/ml	16 U/ml	16 U/ml	8 U/ml	> 256 U/ml	64 U/ml	32 µg/mL	–	–	–	–	–	–	–	–	–	–	–	–	–	MIC (Pseudomonas aeruginosa; in µg/mL (unit assumed)): 32; MIC (Proteus morganii; unit assumed): 128 µg/mL; MIC (Klebsiella-Aerobacter; in µg/mL (unit assumed)): 32
CCS(=O)(=O)N1CCN(C(=O)N[C@@H](C(=O)N[C@@H]2C(=O)N3[C@@H]2SC(C)(C)[C@@H]3C(=O)O)c2ccccc2)C1=O [Example 24, Sodium D(-)-α-[(3-ethanesulphonyl-imidazolidin-2-on-1-yl)-carbonylamino]-benzylpenicillin]	32 U/ml	–	–	< 1 U/ml	512 U/ml	–	–	–	–	–	–	–	–	–	–	–	–	–	–	–	MIC (Proteus vulgaris; unit assumed): 2 µg/mL; MIC (Pseudomonas aeruginosa; in µg/mL (unit assumed)): 32; MIC (Streptococcus faecalis; ATCC 9790, 24 hours, 37°C): 16 U/ml; MIC (Proteus morganii; unit assumed): 2 µg/mL; MIC (Klebsiella-Aerobacter; in µg/mL (unit assumed)): 8
CN(C(=O)N[C@@H](C(=O)N[C@@H]1C(=O)N2[C@@H]1SC(C)(C)[C@@H]2C(=O)O)c1ccccc1)C(=O)N1CCCS1(=O)=O [Example 29, Sodium D(-)-α-{3-[N-(1,1-dioxo-isothiazolidin-2-yl)-carbonyl]-3-methyl}-ureido-benzylpenicillin]	256 U/ml	64 U/ml	16 U/ml	32 U/ml	> 256 U/ml	64 U/ml	–	–	–	–	–	–	–	–	–	–	–	–	–	–	MIC (Pseudomonas aeruginosa; strain Walter, 24 hours, 37°C): 16 U/ml; MIC (Streptococcus faecalis; ATCC 9790, 24 hours, 37°C): 16 U/ml; MIC (Proteus morganii; unit assumed): 128 µg/mL; MIC (Escherichia coli; strain C 165, 24 hours, 37°C): 16 U/ml; MIC (Klebsiella-Aerobacter; strain K 10, 24 hours, 37°C): 64 U/ml
CC1(C)S[C@@H]2[C@H](NC(=O)[C@H](NC(=O)NC(=O)NS(C)(=O)=O)c3ccccc3)C(=O)N2[C@H]1C(=O)O [Example 31, Sodium D(-)-α-(5 -mesyl-biureido)-benzylpenicillin]	64 U/ml	> 256 U/ml	256 U/ml	128 U/ml	> 256 U/ml	> 256 U/ml	32 µg/mL	–	–	–	–	–	–	–	–	–	–	–	–	–	MIC (Pseudomonas aeruginosa; strain Walter, 24 hours, 37°C): 256 U/ml; MIC (Proteus morganii; strain 932, 24 hours, 37°C): 64 U/ml; MIC (Klebsiella-Aerobacter; strain K 10, 24 hours, 37°C): > 256 U/ml
CC1(C)S[C@@H]2[C@H](NC(=O)C(NC(=O)N3CCN(S(C)(=O)=O)C3=O)c3ccc(Cl)cc3)C(=O)N2[C@H]1C(=O)O (stereo partly drawn) [Penicillin No. 2 (Table 3), Sodium D,L-α-[(3-methylsulphonyl-imidazolidin-2-on-1-yl)-carbonylamino]-4-chlorobenzylpenicillin]	–	–	–	–	–	–	–	< 1 U/ml	64 U/ml	8 U/ml	128 U/ml	64 U/ml	64 U/ml	8 U/ml	< 1 U/ml	4 U/ml	256 U/ml	4 U/ml	128 U/ml	32 U/ml	–
CC1(C)S[C@@H]2[C@H](NC(=O)C(NC(=O)N3CCN(S(C)(=O)=O)C3=O)c3cccs3)C(=O)N2[C@H]1C(=O)O (stereo partly drawn) [Penicillin No. 3 (Table 3), Sodium D,L-α-[(3-methylsulphonyl-imidazolidin-2-on-1-yl)-carbonylamino]-α-thienyl-(2)-mthylpenicillin]	–	–	–	–	–	–	32 µg/mL	< 1 U/ml	128 U/ml	4 U/ml	64 U/ml	64 U/ml	–	16 U/ml	< 1 U/ml	4 U/ml	256 U/ml	4 U/ml	256 U/ml	16 U/ml	–
CC1(C)S[C@@H]2[C@H](NC(=O)C(NC(=O)N3CCN(S(C)(=O)=O)C3=O)c3c(Cl)cccc3Cl)C(=O)N2[C@H]1C(=O)O (stereo partly drawn) [Penicillin No. 5 (Table 3), Sodium D,L-α-[(3-methylsulphonyl-imidazolidin-2-on-1-yl)-carbonylamino]-2,6-dichloro-benzylpenicillin]	–	–	–	–	–	–	–	4 U/ml	≥ 256 U/ml	256 U/ml	≥ 256 U/ml	≥ 256 U/ml	256 U/ml	32 U/ml	256 U/ml	256 U/ml	≥ 256 U/ml	≥ 256 U/ml	≥ 256 U/ml	≥ 256 U/ml	–
CC(=O)N1CCN(C(=O)N[C@H](C(=O)N[C@@H]2C(=O)N3[C@@H]2SC(C)(C)[C@@H]3C(=O)O)c2ccccc2)C1=O [Penicillin No. 6 (Table 3), Sodium L(+)-α-[(3-acetyl-imidazolidin-2-on-1-yl)-carbonylamino]-benzylpenicillin]	–	–	–	–	–	–	–	2 U/ml	128 U/ml	32 U/ml	256 U/ml	128 U/ml	128 U/ml	64 U/ml	8 U/ml	16 U/ml	> 512 U/ml	32 U/ml	256 U/ml	128 U/ml	–
CC(=O)N1CCN(C(=O)NC(C(=O)N[C@@H]2C(=O)N3[C@@H]2SC(C)(C)[C@@H]3C(=O)O)c2ccc(Cl)cc2)C1=O (stereo partly drawn) [Penicillin No. 7 (Table 3), Sodium D,L-α-[(3-acetylimidazolidin-2-on-1-yl)-carbonyl-amino]-4-chlorobenzylpenicillin]	–	–	–	–	–	–	–	< 1 U/ml	64 U/ml	32 U/ml	128 U/ml	64 U/ml	64 U/ml	16 U/ml	4 U/ml	8 U/ml	512 U/ml	16 U/ml	128 U/ml	32 U/ml	–
CC(=O)N1CCN(C(=O)NC(C(=O)N[C@@H]2C(=O)N3[C@@H]2SC(C)(C)[C@@H]3C(=O)O)c2ccc(C)cc2)C1=O (stereo partly drawn) [Penicillin No. 8 (Table 3), Sodium D,L-α-[(3-acetyl-imidazolidin-2-on1-yl)-carbonylamino]-4-methyl-benzylpenicillin]	–	–	–	–	–	–	–	–	~ 64 U/ml	–	128 U/ml	64 U/ml	64 U/ml	32 U/ml	2 U/ml	8 U/ml	512 U/ml	8 U/ml	128 U/ml	32 U/ml	MIC (Proteus vulgaris; unit assumed): 16 µg/mL
CC(=O)N1CCN(C(=O)NC(C(=O)N[C@@H]2C(=O)N3[C@@H]2SC(C)(C)[C@@H]3C(=O)O)c2cccs2)C1=O (some centres unmarked) [Penicillin No. 9 (Table 3)]	–	–	–	–	–	–	–	2 U/ml	64 U/ml	8 U/ml	64 U/ml	64 U/ml	64 U/ml	8 U/ml	2 U/ml	8 U/ml	512 U/ml	8 U/ml	128 U/ml	32 U/ml	–
